Test results as given in patent US20020143059A1, “Skin care product containing retinoids, retinoid booster and phytoestrogens in a dual compartment package” (priority 2000, published 2002).
Where two headings read alike, the source gives them in different places.

Tests used:
Retinal Reductase = assay: Assay for Retinal Reductase Activity, liver microsomes; assay type: biochemical, rat; details: test compound final 100 μM (method)
Procedure: 2.5 Assay for Retinal Reductase Activity (To identify B3)
All stock solution were prepared as above with the following substitutions:
10 mM all trans Retinaldehyde (Sigma R2500) in DMSO—instead of retinol.
200 mM, Nicotinamide adenine dinucleotide phosphate, reduced form, tetrasodium salt (NADPH) (Sigma N7505) in sterile water—instead of NADP.
25 μl diluted Microsomes (final=100 μg)—use boiled Microsomes for controls and regular Microsomes for test samples.
4 μl of 200 mM NADPH (final=2 mM)
1 μl of 40 mM test compound (final=100 μM)
Follow the same incubation and extraction procedure as detailed above.
(§1) Samples for retinoid quantitation by HPLC were prepared by dissolving the residue in each vial with 100 μL of methanol. […] Aliquots of 60 μL were injected immediately and analyzed for retinoid content.
Two HPLC protocols were used for retinoid analysis. […] This system consisted of a 20 min. linear gradient from 68:32 (v/v) methanol/ water containing 10 mM ammonium acetate to 4:1 (v/v) methanol:dichloromethane followed by a 5 min. hold at a flow rate of 1 mL/min. The column eluate was monitored from 300 nm to 400 nm.

Retinol Dehydrogenase = assay: Assay for Retinol Dehydrogenase Activity, liver microsomes; assay type: biochemical, rat; details: test compound final 100 μM (method)
Procedure: 2.2 Isolation of rat liver microsomes (modified from R. Martini & M. Murray, “Participation of P450 3A Enzymes in Rat Hepatic Microsomal Renitoic Acid 4-Hydroxylation”, Archives Biochem. Biophys. 303, 57-66 (1993)).
The resulting homogenate was successively centrifuged for 30 min. at 10,000 g, 30 min. at 20,000 g, and 15 min. at 30,000 g, and the resulting supernatant was ultracentrifuged for 80 min. at 105,000 g. […] Protein concentrations were determined as described above.
2.4 Assay for Retinol Dehydrogenase Activity (To identify B2)
The following stock solutions were prepared:
50 mM KH2PO4, pH 7.4 buffer, sterile filtered.
10 mM all trans Retinol (Sigma R7632) in DMSO.
200 mM Nicotinamide adenine dinucleotide phosphate, sodium salt (NADP) (Sigma N0505) in sterile water.
40 mM test compound in appropriate solvent (water, buffer, ethanol, chloroform or DMSO).
1:10 dilution of rat liver Microsomes in 50 mM KH2PO4, pH 7.4 buffer (4 ug/ul).
In a two-dram glass vial with screw cap, add the following in order:
Buffer to give a final volume of 400 μl […]
Aliquots of 60 μL were injected immediately and analyzed for retinoid content.
The chromatography instrumentation consisted of a Waters 600 gradient controller/pump, a Waters 996 Photodiode Array detector and a Waters 474 Scanning Fluorescence detector. […] The eluate was monitored for absorbance at 325 nm and fluorescence at 325 ex/480 em. […]

[1] = Retinol stability in the presence of boosters (OD 360 nm); assay type: physicochemical; details: booster approximately 0.1%, 60 hours at room temperature in the dark, approx. 50% aqueous ethanol
Procedure: Retinol (50% in tween 80) was dissolved in approximately 50% aqueous ethanol to provide a solution giving an OD at 360 nm of approximately 0.6 when measured in a 200 μl volume in a 96 well plate using a standard 96 well spectrophotometer.
Booster molecules were added at approximately 0.1% concentration and the OD 360 measured as above immediately and after 60 hours at room temperature in the dark. A correction was applied to the OD after 60 hours (divide by 0.85) to account for increased concentration of the retinol due to evaporation of solvent from the plate.

TGase I = assay: Transglutaminase (TGase I ELISA) assay in cultured keratinocytes; assay type: cell-based; details: for % Inhibition Overall TG (−ROH/RE): added effect of booster+retinol induced TGase inhibition over retinol alone; for IC50: booster in combination with a constant retinol concentration of 10^−7M, read-out: Overall TG (IC 50)
Procedure: Transglutaminase Assay and Keratinocyte Differentiation
An ELISA based TGase I assay, using a TGase I antibody, was used to assess the state of differentiation of the cultured keratinocytes in the examples that follow.
Keratinocytes (cultured as described above) were plated in 96 well plates at a density of 4,000-5,000 cells per well in 200 μl media. After incubation for two to three days, or until cells are ˜50% confluent, the media was changed to media containing test compounds (five replicates per test). The cells were cultured for a further 96 hours after which time the media was aspirated and the plates stored at −70° C. Plates were removed from the freezer, and the cells were washed twice with 200 μl of 1×PBS. The cells were incubated for one hour at room temperature (R/T) with TBS/5% BSA (wash buffer, bovine serum albumin). Next the TGase primary antibody was added: 50 μl of monoclonal anti-Tgase I Ab B.C. diluted 1:2000 in wash buffer. The primary antibody was incubated for 2 hours at 37° C. and then rinsed 6× with wash buffer. Cells were then incubated with 50 μl of secondary antibody (Fab fragment, peroxidase conjugated anti-mouse IgG obtaining from Amersham) diluted 1:4,000 in wash buffer for two hours at 37° C., then rinsed three times with wash buffer. Following the rinse with washing buffer, the cells were rinsed 3× with PBS. For colourimetric development, the cells were incubated with 100 μl substrate solution (4 mg o-phenylenediamine and 3.3 μl 30% H2O2 in 10 ml 0.1M citrate buffer pH 5.0) for exactly five minutes, R/T, in darkness (under aluminum foil). The reaction was stopped by the addition of 50 μl 4N H2SO4. […] Out of the five replicates, four were treated with both antibodies, the fifth one was use as a Tgase background control. TGase levels were determined and expressed as percentage control.
(i) % (booster+retinol inhibition/control inhibition)−% (ROH inhibition/control inhibition), which measures the added effect of booster+retinol induced TGase inhibition over retinol alone, or

LRAT = biological target: T1, LRAT (Bos taurus, UniProt Q9BGL2); assay: Assay for LRAT activity, RPE microsomes; assay type: biochemical, bovine
T1 construct: followed by approximately 15 μg of RPE microsomal protein; tissue W. L. Lawson Co., Lincoln, Nebr; host or cells: bovine retinal pigment epithelium microsomes
T1 sequence (Q9BGL2 1-230): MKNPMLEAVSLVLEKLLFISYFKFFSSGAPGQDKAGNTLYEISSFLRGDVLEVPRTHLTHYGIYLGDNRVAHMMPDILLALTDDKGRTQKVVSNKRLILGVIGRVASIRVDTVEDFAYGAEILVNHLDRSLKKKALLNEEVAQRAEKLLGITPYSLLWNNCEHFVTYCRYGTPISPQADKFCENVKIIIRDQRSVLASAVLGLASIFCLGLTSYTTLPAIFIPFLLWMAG
Procedure: 50 frozen hemisected bovine eyecups, with the retina and aqueous humor removed were obtained from W. L. Lawson Co., Lincoln, Nebr., USA. The eyes were thawed overnight and the colored iridescent membrane was removed by peeling with forceps. […] The cell suspension was added to the iridescent membranes and the suspension was stirred for several minutes in a beaker with a Teflon stir bar. […] The cell homogenate was centrifuged for 30 min. at 20,000 g (Sorvaal model RC-5B centrifuge with an SS34 rotor in 2.5×10 cm tubes at 14,000 RPM). The resulting supernatant was subjected to further centrifugation for 60 min. at 150,000 g (Beckman model L80 Ultracentrifuge with an SW50.1 rotor in 13×51 mm tubes at 40,000 RPM). […] The protein concentrations of the microsomes were determined using the BioRad Dye binding assay, using BSA as a standard. […]
Incubate for 5 min. at 37° C. to equilibrate the reaction temperature and then add 5 μL 1 mM retinol. […] Quantitate the amount of retinyl palmitate and retinyl laurate for ARAT and LRAT activity, respectively, by integration of the HPLC signal as described below. […]
as §1
(§2) Two HPLC protocols were used for retinoid analysis. […] The column eluate was monitored from 300 nm to 400 nm. […]

ARAT = assay: Assay for ARAT activity, RPE microsomes; assay type: biochemical, bovine; details: for % Inhibition ARAT (100 μm): 100 μm compound
Procedure: 50 frozen hemisected bovine eyecups, with the retina and aqueous humor removed were obtained from W. L. Lawson Co., Lincoln, Nebr., USA. The eyes were thawed overnight and the colored iridescent membrane was removed by peeling with forceps. […] The cell suspension was added to the iridescent membranes and the suspension was stirred for several minutes in a beaker with a Teflon stir bar. […] The cell homogenate was centrifuged for 30 min. at 20,000 g (Sorvaal model RC-5B centrifuge with an SS34 rotor in 2.5×10 cm tubes at 14,000 RPM). The resulting supernatant was subjected to further centrifugation for 60 min. at 150,000 g (Beckman model L80 Ultracentrifuge with an SW50.1 rotor in 13×51 mm tubes at 40,000 RPM). The resulting pellets were dispersed into ˜5 mL 0.1M PO4/5 mM DTT, pH 7 buffer using a Heat Systems Ultrasonics, Inc. model W185D Sonifier Cell Disruptor, and the resulting microsomal dispersion was aliquoted into small tubes and stored at −70° C. The protein concentrations of the microsomes were determined using the BioRad Dye binding assay, using BSA as a standard.
2.3 Assay for ARAT and LRAT activity (To identify B1)
The following buffer was prepared and stored at 4° C.: 0.1M PO4/5 mM dithiothreitol, pH 7.0 (PO4/DTT). On the day of the assay, add 2 mg BSA per mL of buffer to give a PO4/DTT/BSA working buffer. 1 mM retinol substrate was prepared in acetonitrile and stored in amber bottles under nitrogen gas at −20° C. Solutions of 4 mM Palmitoyl-CoA in working buffer (stored in aliquots) and 4 mM dilauroyl phosphatidyl choline in ethanol were prepared and stored at −20° C. Inhibitors were prepared as 10 mM stock solutions in H2O, ethanol, acetonitrile or DMSO. The quench solution was prepared using pure ethanol containing 50 μg/mL butylated hydroxytoluene (BHT), and a hexane solution containing 50 μg/mL BHT was used for the extractions.
Incubate for 5 min. at 37° C. to equilibrate the reaction temperature and then add 5 μL 1 mM retinol. Cap the vials, vortex for 5 seconds and incubate for 30-90 minutes at 37° C. Quench the reaction by adding 0.5 mL ethanol/BHT. Extract the retinoids by adding 3 mL hexane/BHT, vortex the tubes for several seconds several times and centrifuge the tubes at low speed for 5 min. to quickly separate the layers. […] Quantitate the amount of retinyl palmitate and retinyl laurate for ARAT and LRAT activity, respectively, by integration of the HPLC signal as described below. […]
as §1, §2

CRABP-II = CRABP-II expression in adult fibroblasts (dot blot); assay type: cell-based, human; details: for CRABP-II production / % as Control: 1 μM phytoestrogen alone; for % as Control: control as 100%
Procedure: Cells were grown in 1:1 DMEM/Hams F12 media containing 10% FBS, maintained at 37° C. in a 5% CO2 atmosphere under normal atmosphere oxygen tension. Third passage adult fibroblasts were grown in DMEM media with 10% FBS in 12-well plates at a seeding density of 2500 cells/ml/well. The cells at 80% confluence were rinsed in serum free and phenol red free (PRF) DMEM media twice. Pre-treatment with phyto-compounds for 4 hours was conducted and then dosed with retinoids and was incubated for 48 hours. After the incubation, the wells were washed twice with 1×PBS and the cell monolayer was harvested in 100 μl cell lysis buffer (contains 1×PBS, 1% Triton X, 0.5% sodium deoxycholate, 0.1% SDS containing protease inhibitor (10 mg/ml PMSF in isopropanol, 10 μl/ml). The suspension was spun at 14000 rpm for 10 minutes, the supernatant collected and an aliquot of this supernatant was used for protein quantification. Protein concentration was determined using Pierce protein kit. The remainder of 100 μl supernatant (cell lysate) was denatured in a mixture of 40 μl sample buffer (NOVEX) and 0.5% Beta mercaptoethanol (BME) and by boiling the sample for 5 minutes.
To measure the levels of CRABP-II in the fibroblasts, the equal amount of protein of cell supernatant were loaded onto to nitrocellulose blots in a dot blot apparatus as instructed by the manufactorer, and immunostaining was carried out using monoclonal antibodies to CRABP-II according to standard procedures. The CRABP-II protein band was visualized in the Dot Blots using the chemiluminescence system obtained from Santa Cruz Biotechnology (SantaCruz, Calif.). The bands in the film were quantitated by dens tometric scanning, the data from the triplicate samples were calculated as % of control and expressed in the following tables as % increase over control (with control as 100%) +/−SD triplicates.

[2] = Retinol stability in the presence of phytoestrogenic flavonoids (OD 360 nm); assay type: physicochemical
Procedure: Retinol was dissolved as a 10% solution in aqueous ethanol (1:1 water:ethanol). This solution was diluted to 0.001% approximately 30 μM). This solution gave an OD of about 0.35 absorption unit at 360 nm in a 96 well plate spectrophotometer.
Aqueous ethanolic stock solutions of the genistein, daidzein were prepared as 0.1%, 0.01% or 0.001%. To 200 μl of 0.001% retinol solution in a 96 well plate was added 20 μl of the flavonoid (i.e. 1-10 dilution) giving a final flavonoid concentration of 0.01, 0.001 and 0.0001%. The plates were mixed and an initial OD reading was taken at 360 nm. The plates were incubated at room temperature in the dark for up to 2 days and subsequent readings were taken at 8, 24 and 48 hours. The OD readings at these time points were normalized to the 0 time point reading. The retinol stability was expressed as % of retinol (OD reading) at 0 time. The data is shown in example 5.
Example 5: The following tables show the effect of genistein and daidzein on destabilizing retinol. The experiment was done as described in methods section. The OD readings from duplicate measurements were averaged and given here.

CC1(C)[C@@H](OC(=O)CCC(=O)O)CC[C@]2(C)[C@H]3C(=O)C=C4[C@@H]5C[C@@](C)(C(=O)O)CC[C@]5(C)CC[C@@]4(C)[C@]3(C)CC[C@@H]12 [Carbenoxolone, reference compound]
% Inhibition Retinal Reductase (Retinal Reductase): 26% +/− 2

Sphingomyelin
% Increase Retinol Dehydrogenase (Retinol Dehydrogenase): 26% increase

DAMASCONE
FOLD INCREASE IN RATE OF RETINOL LOSS [1]: 3.7 fold

CCCCC/C=C\C/C=C\CCCCCCCC(=O)O [Linoleic Acid]
% Inhibition Retinal Reductase (Retinal Reductase): 62% +/− 2
FOLD INCREASE IN RATE OF RETINOL LOSS [1]: 3.4 fold

CN1CCN(C)C1=O [Dimethyl Imidazolidinone]
% Inhibition Overall TG (−ROH/RE) (TGase I): 22%
FOLD INCREASE IN RATE OF RETINOL LOSS [1]: 1.4 fold

CCCCCCCCCCCCCC(=O)O [Myristic Acid]
% Inhibition Retinal Reductase (Retinal Reductase): 26%

CCCCC/C=C\C/C=C\CCCCCCCC(=O)N(CCO)CCO [Linoleoyl Diethanolamide]
% Inhibition Overall TG (−ROH/RE) (TGase I): 59%
% Inhibition LRAT (10 μm) (LRAT; 10 μm compound): 11% +/− 9
% Inhibition LRAT (100 μm) (LRAT; 100 μm compound): 51% +/− 15
FOLD INCREASE IN RATE OF RETINOL LOSS [1]: 3.0 fold

CC(C)=CCCC(C)=CC=O [Citral]
FOLD INCREASE IN RATE OF RETINOL LOSS [1]: 3.1 fold
% Inhibition ARAT (100 μm) (ARAT): 20%

COc1cc(C=O)ccc1O [Vanillin]
% Inhibition Retinal Reductase (Retinal Reductase): 6%

O=c1ccc2ccccc2o1 [COUMARIN]
FOLD INCREASE IN RATE OF RETINOL LOSS [1]: 1.4 fold

CC1(C)[C@@H](O)CC[C@]2(C)[C@H]3C(=O)C=C4[C@@H]5C[C@@](C)(C(=O)O)CC[C@]5(C)CC[C@@]4(C)[C@]3(C)CC[C@@H]12 [Glycyrretinic Acid]
IC50 (TGase I; Keratinocyte): 8.64 µM
FOLD INCREASE IN RATE OF RETINOL LOSS [1]: 1.6 fold

CC(C)=CCC/C(C)=C/CO [Geraniol]
FOLD INCREASE IN RATE OF RETINOL LOSS [1]: 1.3 fold
% Inhibition ARAT (10 μm) (ARAT; 10 μm compound): 13%
% Inhibition ARAT (100 μm) (ARAT): 32%

Phosphatidyl Choline
% Increase Retinol Dehydrogenase (Retinol Dehydrogenase): 21% increase

O=c1c(-c2ccc(O)cc2)coc2cc(O)ccc12 [Daidzein]
CRABP-II production (CRABP-II): 1.49+/−0.66
% as Control (CRABP-II): 513+/−227%
Retinol stability, % of retinol (OD reading) at 0 time ([2]; 8 h, 0.0001 %): 82%
Retinol stability, % of retinol (OD reading) at 0 time ([2]; 24 h, 0.0001 %): 78%
Retinol stability, % of retinol (OD reading) at 0 time ([2]; 48 h, 0.0001 %): 76%

COCAMIDE DEA
FOLD INCREASE IN RATE OF RETINOL LOSS [1]: 1.9 fold

CCCCCCCCCCCC(=O)N(C)CC(=O)O [Lauroyl Sarcosine]
FOLD INCREASE IN RATE OF RETINOL LOSS [1]: 2.6 fold
% Inhibition ARAT (100 μm) (ARAT): 20%

Oc1cccc2cccnc12 [8 OH QUINOLINE]
FOLD INCREASE IN RATE OF RETINOL LOSS [1]: 1.5 fold

O=c1c(-c2ccc(O)cc2)coc2cc(O)cc(O)c12 [Genistein]
stimulation of CRABP-II (CRABP-II; 1 μM alone): stimulated CRABP-II significantly
CRABP-II production (CRABP-II): 1.9+/−0.71
% as Control (CRABP-II): 655+/−247%
effect of flavonoid on instability of retinol ([2]; up to 48 hours): marked increases in the instability of retinol

CC(=O)/C=C/C1C(C)=CCCC1(C)C (stereo not drawn) [Alpha=Ionone]
IC50 (TGase I): 927 µM
FOLD INCREASE IN RATE OF RETINOL LOSS [1]: 1.3 fold

CC1=C(/C=C/C(C)=C/C=C/C(C)=C/CO)C(C)(C)CCC1 [Retinol]
retinol degraded ([2]; 8 h, 0.001 %): 8%
Retinol stability, % of retinol (OD reading) at 0 time ([2]; 24 h, 0.001 %): 86%
retinol degraded ([2]; 24 h, 0.001 %): 14%
Retinol stability, % of retinol (OD reading) at 0 time ([2]; 48 h, 0.001 %): 81%
retinol degraded ([2]; 48 h, 0.001 %): 19%
